Experimental data taken from ChEMBL document CHEMBL5247627, “1-Methyl-3-((4-(quinolin-4-yloxy)phenyl)amino)-1H-pyrazole-4-carboxamide derivatives as new rearranged during Transfection (RET) kinase inhibitors capable of suppressing resistant mutants in solvent-front regions” (Eur J Med Chem, 2022).

Tests used:
BaF3 [1] = assay: Antiproliferative activity against mouse BaF3 cells expressing rearranged during transfection kinase G810C-CCDC6 incubated for 74 to 76 hrs by cell counting kit 8 method
BaF3 [2] = assay: Antiproliferative activity against mouse BaF3 cells expressing rearranged during transfection kinase G810R-CCDC6 incubated for 74 to 76 hrs by cell counting kit 8 method
BaF3 [3] = assay: Antiproliferative activity against mouse BaF3 cells expressing wildtype rearranged during transfection kinase-CCDC6 incubated for 74 to 76 hrs by cell counting kit 8 method
BaF3 [4] = assay: Antiproliferative activity against mouse BaF3 cells expressing rearranged during transfection kinase V804M-CCDC6 incubated for 74 to 76 hrs by cell counting kit 8 method
BaF3 [5] = assay: Antiproliferative activity against mouse BaF3 cells incubated for 74 to 76 hrs by cell counting kit 8 method; assay type: functional, cell-based
[6] = biological target: Proto-oncogene tyrosine-protein kinase receptor Ret (Homo sapiens, UniProt P07949); assay: Inhibition of wild type rearranged during transfection kinase (unknown origin) preincubated for 1 hr followed by addition of development agent incubated for 1 hr measured by FRET-based Z'-Lyte assay
Proto-oncogene tyrosine-protein kinase receptor Ret, sequence (P07949 whole entry): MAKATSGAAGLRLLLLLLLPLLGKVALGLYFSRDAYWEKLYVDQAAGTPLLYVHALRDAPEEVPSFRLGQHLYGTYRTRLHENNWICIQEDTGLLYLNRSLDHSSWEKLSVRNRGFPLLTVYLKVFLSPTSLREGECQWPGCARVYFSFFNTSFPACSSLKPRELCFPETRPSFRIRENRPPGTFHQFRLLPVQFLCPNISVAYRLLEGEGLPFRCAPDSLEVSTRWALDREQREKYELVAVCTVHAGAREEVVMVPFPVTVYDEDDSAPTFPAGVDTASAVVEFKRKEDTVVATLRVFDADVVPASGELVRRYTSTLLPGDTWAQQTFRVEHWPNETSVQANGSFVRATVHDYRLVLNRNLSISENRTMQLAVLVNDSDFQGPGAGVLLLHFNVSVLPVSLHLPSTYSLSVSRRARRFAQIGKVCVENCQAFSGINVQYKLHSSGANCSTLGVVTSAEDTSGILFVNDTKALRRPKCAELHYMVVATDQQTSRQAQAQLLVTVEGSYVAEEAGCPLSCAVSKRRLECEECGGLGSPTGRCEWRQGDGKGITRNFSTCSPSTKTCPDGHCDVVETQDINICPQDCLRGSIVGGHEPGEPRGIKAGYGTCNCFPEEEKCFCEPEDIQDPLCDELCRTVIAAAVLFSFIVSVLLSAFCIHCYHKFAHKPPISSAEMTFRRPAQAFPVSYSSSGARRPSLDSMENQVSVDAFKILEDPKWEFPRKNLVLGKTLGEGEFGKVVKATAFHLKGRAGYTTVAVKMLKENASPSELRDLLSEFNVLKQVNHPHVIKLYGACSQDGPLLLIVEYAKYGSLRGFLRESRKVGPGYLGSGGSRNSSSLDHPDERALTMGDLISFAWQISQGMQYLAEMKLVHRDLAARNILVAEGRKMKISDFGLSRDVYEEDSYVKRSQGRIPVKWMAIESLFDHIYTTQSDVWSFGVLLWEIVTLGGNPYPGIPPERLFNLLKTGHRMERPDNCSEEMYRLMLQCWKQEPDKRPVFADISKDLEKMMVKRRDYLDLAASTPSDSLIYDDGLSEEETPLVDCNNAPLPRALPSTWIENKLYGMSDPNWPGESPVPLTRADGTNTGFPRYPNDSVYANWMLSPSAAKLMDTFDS

BaF3 [7] = assay: Antiproliferative activity against mouse BaF3 cells expressing rearranged during transfection kinase V804L-G810S incubated for 74 to 76 hrs by cell counting kit 8 method
BaF3 [8] = assay: Antiproliferative activity against mouse BaF3 cells expressing wildtype rearranged during transfection kinase-KIF5B incubated for 74 to 76 hrs by cell counting kit 8 method
BaF3 [9] = assay: Antiproliferative activity against mouse BaF3 cells expressing rearranged during transfection kinase V804L-G810C incubated for 74 to 76 hrs by cell counting kit 8 method
BaF3 [10] = assay: Antiproliferative activity against mouse BaF3 cells expressing rearranged during transfection kinase V804M-KIF5B incubated for 74 to 76 hrs by cell counting kit 8 method
BaF3 [11] = assay: Antiproliferative activity against mouse BaF3 cells expressing rearranged during transfection kinase V804L-KIF5B incubated for 74 to 76 hrs by cell counting kit 8 method
BaF3 [12] = assay: Antiproliferative activity against mouse BaF3 cells expressing rearranged during transfection kinase V804L-G810R incubated for 74 to 76 hrs by cell counting kit 8 method

Row | SMILES | IC50 (BaF3 [1]) [nM] | IC50 (BaF3 [2]) [nM] | IC50 (BaF3 [3]) [nM] | IC50 (BaF3 [4]) [nM] | IC50 (BaF3 [5]) [nM] | IC50 [6] [nM] | IC50 (BaF3 [7]) [nM] | IC50 (BaF3 [8]) [nM] | IC50 (BaF3 [9]) [nM] | IC50 (BaF3 [10]) [nM] | IC50 (BaF3 [11]) [nM] | IC50 (BaF3 [12]) [nM]
1 | COc1cc2nccc(Oc3ccc(Nc4nn(C)cc4C(=O)NOCc4ccccc4)cc3)c2cc1C(N)=O | > 10000 | 4940 | 410 | 732 | > 10000 |  |  |  |  |  |  | 
2 | COc1cc2nccc(Oc3ccc(Nc4nn(C)cc4C(=O)Nc4ccccc4)cc3)c2cc1C(N)=O | > 10000 | > 10000 | 2260 | 1720 | > 10000 |  |  |  |  |  |  | 
3 | COc1cc2nccc(Oc3ccc(Nc4nn(C)cc4C(=O)NCc4ccccc4)cc3)c2cc1C(N)=O | 8540 | 9080 | 2180 | 1120 | > 10000 |  |  |  |  |  |  | 
4 | COc1cc2nccc(Oc3ccc(Nc4nn(C)cc4C(=O)NC45CC6CC(CC(C6)C4)C5)c(Cl)c3)c2cc1C(N)=O | 29.4 | 137 | 7.8 | 53.4 | > 10000 |  |  |  |  |  |  | 
5 | COc1cc2nccc(Oc3ccc(Nc4nn(C)cc4C(=O)NC4CCCCCCC4)cc3)c2cc1C(N)=O | 95.3 | 523 | 12.5 | 171 | 3210 |  |  |  |  |  |  | 
6 | COc1cc2nccc(Oc3ccc(Nc4nn(C)cc4C(=O)N4CCCCC4)cc3)c2cc1C(N)=O | 5760 | 3520 | 3060 | 3780 | 5650 | > 10000 |  |  |  |  |  | 
7 | CNC(=O)c1cc2c(Oc3ccc(Nc4nn(C)cc4C(=O)NC45CC6CC(CC(C6)C4)C5)cc3F)ccnc2cc1OC | 122 | 192 | 13.8 | 61.5 | > 10000 |  |  |  |  |  |  | 
8 | COc1cc2nccc(Oc3ccc(Nc4nn(C)cc4C(=O)Nc4ccc(F)cc4)cc3)c2cc1C(N)=O | 5190 | 2900 | 2980 | 3020 | 3060 | > 10000 |  |  |  |  |  | 
9 | COc1cc2nccc(Oc3ccc(Nc4nn(C)cc4C(=O)NC45CC6CC(CC(C6)C4)C5)cc3F)c2cc1C#N | 659 | 1290 | 142 | 1620 | > 10000 |  |  |  |  |  |  | 
10 | COc1cc2nccc(Oc3ccc(Nc4nn(C)cc4C(=O)NCC(C)C)cc3)c2cc1C(N)=O | 2280 | 2050 | 206 | 2080 | > 10000 |  |  |  |  |  |  | 
11 | COc1cc2nccc(Oc3ccc(Nc4nn(C)cc4C(=O)NC4CCCCC4)cc3)c2cc1C(N)=O | 442 | 582 | 24 | 235 | 4800 |  |  |  |  |  |  | 
12 | COc1cc2nccc(Oc3ccc(Nc4nn(C)cc4C(=O)NC45CC6CC(CC(C6)C4)C5)cc3)c2cc1C(N)=O | 99.9 | 285 | 8.7 | 60.8 | > 10000 |  |  |  |  |  |  | 
13 | Cn1cc(C(=O)NC23CC4CC(CC(C4)C2)C3)c(Nc2ccc(Oc3ccnc4cc(OCCN5CCOCC5)c(C(N)=O)cc34)c(F)c2)n1 | 233 | 534 | 11.2 | 29.7 | > 10000 |  |  |  |  |  |  | 
14 | COc1cc2nccc(Oc3ccc(Nc4nn(C)cc4C(=O)NC45CC6CC(CC(C6)C4)C5)c(C)c3)c2cc1C(N)=O | 66.1 | 464 | 11.8 | 62.2 | > 10000 |  |  |  |  |  |  | 
15 | COc1cc2nccc(Oc3ccc(Nc4nn(C)cc4C(=O)Nc4cccc(F)c4)cc3)c2cc1C(N)=O | 8520 | 3440 | 1560 | 3270 | 4480 | > 10000 |  |  |  |  |  | 
16 | COc1cc2nccc(Oc3ccc(Nc4nn(C)cc4C(=O)NCC4CCCO4)cc3)c2cc1C(N)=O (stereo unspecified) | 9510 | 9680 | 1160 | 6910 | > 10000 |  |  |  |  |  |  | 
17 | COc1cc2nccc(Oc3ccc(Nc4nn(C)cc4C(=O)N4CCCC5CCCCC54)cc3)c2cc1C(N)=O (stereo unspecified) | 3770 | 1700 | 2980 | 903 | 4330 | > 10000 |  |  |  |  |  | 
18 | COc1ccc(CN2C3CC2CN(c2ccc(-c4cc(OCC(C)(C)O)cn5ncc(C#N)c45)cn2)C3)cn1 [SELPERCATINIB] | 472 | 1100 | 7.4 | 17.4 | > 10000 |  | 253 | 10.6 | 1240 | 72 | 37.8 | 4340
19 | COc1cc2nccc(Oc3ccc(Nc4nn(C)cc4C(=O)NC4CCCC4)cc3)c2cc1C(N)=O | 3610 | 7280 | 153 | 1030 | > 10000 |  |  |  |  |  |  | 
20 | COc1cc2nccc(Oc3ccc(Nc4nn(C)cc4C(=O)NC45CC6CC(CC(C6)C4)C5)cc3F)c2cc1C(N)=O | 1000 | 1640 | 179 | 1360 | > 10000 |  |  |  |  |  |  | 
21 | CO[C@]1(C(=O)N[C@@H](C)c2ccc(-n3cc(F)cn3)nc2)CC[C@H](c2nc(C)cc(Nc3cc(C)[nH]n3)n2)CC1 [PRALSETINIB] | > 261 | 575 | 4.4 | 3.5 | 1170 |  | 21.7 | 5.7 | 215 | 9.2 | 4.1 | 241
22 | COc1cc2nccc(Oc3ccc(Nc4nn(C)cc4C(=O)Nc4ccccc4F)cc3)c2cc1C(N)=O | > 10000 | 1200 | > 10000 | 1860 | 1710 | > 10000 |  |  |  |  |  | 
23 | COc1cc2nccc(Oc3ccc(Nc4nn(C)cc4C(=O)NC45CCC(CC4)CC5)cc3)c2cc1C(N)=O | 329 | 263 | 13.9 | 161 | > 10000 |  |  |  |  |  |  | 
24 | Cn1cc(C(=O)NC23CC4CC(CC(C4)C2)C3)c(Nc2ccc(Oc3ccnc4cc(OCCCN5CCOCC5)c(C(N)=O)cc34)c(F)c2)n1 | 363 | 329 | 5.1 | 7 | 1360 |  |  |  |  |  |  | 
25 | COc1cc2nccc(Oc3ccc(Nc4nn(C)cc4C(=O)NC45CC6CC(CC(C6)C4)C5)c(C#N)c3)c2cc1C(N)=O | 148 | 230 | 18.8 | 70.3 | 9770 |  |  |  |  |  |  | 
26 | COc1cc2nccc(Oc3ccc(Nc4nn(C)cc4C(=O)NCC4CCCCC4)cc3)c2cc1C(N)=O | 1260 | 3620 | 281 | 888 | > 10000 |  |  |  |  |  |  | 
27 | COc1cc(Oc2ccnc3cc(OC)c(C(N)=O)cc23)ccc1Nc1nn(C)cc1C(=O)NC12CC3CC(CC(C3)C1)C2 | 349 | 591 | 21.6 | 141 |  |  |  |  |  |  |  | 
